In PMC12467382, “Synthesis and Bioevaluation of Chalcones as Broad-Spectrum Antiviral Compounds Against Single-Stranded RNA Viruses” (Biomolecules, 2025):
Where “and” joins values, the source holds several entries; their conditions need not be identical. Identical values can stand only once.

Columns and labels:
PIV5-GFP = PIV5-GFP viral GFP expression in Hs27 cells by flow cytometry; format: cell-based, parainfluenza virus 5; details: for Ability to reduce viral GFP expression (Figure 4B screen): 10 µM chalcone before and after infection; for GFP-positive cells, chalcone added at 0 or 6 hpi: 10 µM added at 0 (or 6) hpi, DMSO ~80%; for Effect on number of GFP-positive cells, chalcone added at 18 hpi: 10 µM added at 18 hpi; for GFP-positive cells: 10 µM chalcone 24 h before infection and after, DMSO control ~80-82% GFP+; for Inhibition of GFP expression, pre-infection treatment only: 10 µM for 24 h before infection, media lacking chalcone after; for GFP-positive cells, virus spread, chalcone added at 0 and 24 hpi: 10 µM added at 0 and 24 hpi, DMSO nearly 60%; for Inhibition of virus spread, chalcone added at 48 and 72 hpi: 10 µM added at 48 and 72 hpi; for % GFP relative to DMSO treated (10 µM): Hs27 cells infected with PIV5-GFP
Experimental: Parainfluenza virus 5 (PIV5) expressing green fluorescence protein (GFP) was derived from cDNA, grown at 37 °C in Madin–Darby bovine kidney (MDBK) cells and titered on CV-1 (African green monkey kidney) cells with a fibroblast morphology as previously described. MDBK and CV-1 cells were the kind gift of Dr. Robert Lamb (Northwestern University). Cells were infected with virus diluted in DMEM supplemented with 10% bovine serum albumin (BSA) for 1 h or mock infected with media alone. Following incubation, cells were washed with phosphate-buffered saline (PBS) and cultured in DMEM supplemented with 2% heat-inactivated (HI) FBS.
(§1) Chalcone treatments were performed in DMEM supplemented with 10% HI FBS at the indicated concentrations and for indicated periods of time. Chalcone stocks were reconstituted in 100% dimethyl sulfoxide (DMSO) at a concentration of 10 mM and were serially diluted to working concentrations in DMSO. DMSO control treatments to test the effect of the vehicle were performed at volumes corresponding to the volume of chalcone added during each experiment (i.e., 1 µL chalcone DMSO solution/1 mL DMEM [10 µM] utilized alongside the DMSO control of 1 µL/1 mL DMEM). For cytotoxicity assays, untreated controls were subtracted from DMSO and chalcone sample values to account for the background signal.
(§2) For cytotoxicity assays, cells were stained with propidium iodide (PI) at a dilution of 1:100. Cell viability was determined via flow cytometry using the CytoFLEX (Beckman Coulter, Brea, CA, USA). CytExpert software (Beckman Coulter, version 2.4) was used to analyze independent events. PIV5 infection was monitored using flow cytometry via the FITC channel by analyzing GFP expression of individual cells. ZIKV infection was monitored utilizing Flavivirus group antigen–antibody (D1-4G2-4-15; Novus Biologicals, Littleton, CO, USA) staining for the ZIKV envelope protein. Cells were fixed and permeabilized using eBioscience Intracellular Fixation and Permeabilization Buffer (Invitrogen, Thermo Fisher Scientific, MA, USA) according to the manufacturer’s instructions. Secondary staining was performed using an anti-Alexa Fluor 488 (AF488) antibody (Invitrogen, Thermo Fisher Scientific, MA, USA). OC43 infection was monitored utilizing a primary antibody targeted toward the OC43 nucleocapsid protein (NP, MAB9013, Sigma-Aldrich, St. Louis, MO, USA). Secondary staining was performed using an AF488 antibody. Cells were fixed and permeabilized as previously described. LACV infection was monitored utilizing an anti-LACV Gc 807.31ab antibody kindly provided by Andrew Pekosv. Secondary staining was performed using an AF488 antibody. Cells were fixed and permeabilized as previously described.
To measure the effect of chalcone treatment on PIV5 virus growth, Hs27 cells were infected with PIV5-GFP. This engineered negative sense single-stranded RNA virus expresses GFP, which serves as a genome-encoded protein readout. After entering a cell, PIV5 must first undergo primary transcription to convert its genome into mRNA. As genome replication begins, nascent genomes then become templates for further conversion to mRNA and viral gene expression becomes amplified in a process called secondary transcription. For viral proteins to be detectable in cell culture, this amplification must first take place, making the expression of GFP a direct indicator of whether secondary transcription has successfully occurred. […] As shown in the representative data in Figure 4A, ~82% of DMSO-treated PIV5-GFP infected cells were positive for GFP expression. This was reduced to ~2% GFP-positive cells after treatment with 8o. […] These chalcones were therefore selected for further screening for cytotoxicity.
The GFP IC50 was defined as the concentration of chalcone required to inhibit the GFP expression (as measured via flow cytometry) by 50% when compared to DMSO-treated cells. […]

Hs27 cells = assay: Propidium iodide (PI) staining cytotoxicity in Hs27 cells by flow cytometry; format: cell-based; details: for PI+ cells: 10 µM, 24 h post-treatment, untreated control subtracted; for PI MTC: 24 h, concentration giving 10% PI+ cells, Hs27 cells, standard curve
Experimental: as §1, §2
To determine the actual cytotoxic effects of select chalcones in the series, human fibroblast Hs27 cells were treated with DMSO as a control or treated with each selected chalcone at a concentration of 10 µM. At 24 h post-treatment (hpt), the Hs27 cells were stained with propidium iodide (PI), a stain for cells with permeable plasma membranes, and then processed for flow cytometry (see Figure 4). […] These cytotoxicity findings reflected the relative growth-inhibition properties of 8f, 8l, 8o, 8p, 8s, 8w, 8x, and 8z observed in Table 2 (see Hs27 cell data).
The GFP IC50 was defined as the concentration of chalcone required to inhibit the GFP expression (as measured via flow cytometry) by 50% when compared to DMSO-treated cells. […] To determine these PI MTCs, Hs27 cells were treated with each chalcone at various concentrations for 24 h and then analyzed via flow cytometry for positive PI staining. Untreated controls were subtracted to account for background staining. […] Immediately following infection, media were replaced with chalcone-supplemented media at specified concentrations. GFP expression was analyzed via flow cytometry at 24 hpi.

Vero cells = assay: Propidium iodide (PI) staining cytotoxicity in Vero cells by flow cytometry; format: cell-based; details: 24 h, concentration giving 10% PI+ cells
Experimental: We also extended the analysis of chalcone anti-viral effects to the widely used Vero cell line. […] The quotients of these values were determined to compare the compounds directly while accounting for both cytotoxicity and efficacy against PIV5.

mTOR signaling = assay: Western blot of prps6 and rps6 as readouts of mTOR signaling in PANC-1 cells; format: cell-based; details: 72 h, chalcones 10 µM, rapamycin 10 nM
Experimental: PANC-1 cells were cultured in 6-well dishes and were lysed using modified radioimmunoprecipitation assay (RIPA) buffer (20 mM HEPES, pH 7.0, 150 mM NaCl, 1 mM EDTA, 1% NP-40, 1% deoxycholate, and 0.1% sodium dodecyl sulfate [SDS]) containing a complete protease inhibitor cocktail (Roche, Mannheim, Germany) and PhosSTOP phosphatase inhibitor cocktail (Roche, Mannheim, Germany). Protein concentrations were determined using the bicinchoninic acid (BCA) protein assay kit (Pierce, Rockford, IL, USA) according to manufacturer’s instructions. Cell lysates with 25 µg of protein were resolved on 12% sodium dodecyl sulfate-polyacrylamide gel electrophoresis (SDS-PAGE) gels and electro-transferred onto polyvinylidene difluoride (PVDF) membranes (Trans-Blot Turbo Transfer System, BioRad, Hercules, CA, USA). The samples were probed with rabbit monoclonal antibodies for the P-rps6 (1:1000) protein (Cell Signaling, Danvers, MA, USA) and mouse monoclonal antibodies for rps6 (1:1000) (Cell Signaling) and β-actin (1:5000) (Abcam, Waltham, MA, USA) proteins. Blots were visualized using anti-rabbit or anti-mouse horseradish peroxidase (HRP)-conjugated antibodies (Cell Signaling) and chemiluminescence reagent (Thermo Fisher Scientific, Waltham, MA, USA).
PANC-1 cells were chosen for this study as they are highly dependent on mTOR for their growth. PANC-1 cells were cultured and treated with the positive control rapamycin (10 nM) and chalcones NM5, 8a, 8o, 8s, 8v, and 8w (10 μM) for 72 h. Rapamycin and the chalcones were dissolved in 100% DMSO and dosed so that the final DMSO concentration was 0.1%. Cell lysates were collected and analyzed to determine the relative protein expression levels of rps6, prps6, and β-actin as a loading control (see Figure 12).

[1] = low MOI (0.1 in Figure 7), read at 96 hpi

Compound | Ability to reduce viral GFP expression (Figure 4B screen) (PIV5-GFP; MOI 10, 24 hpi) | PI+ cells (Hs27 cells) | PI MTC (Hs27 cells) | PI MTC (Vero cells) | Inhibition of GFP expression, pre-infection treatment only (PIV5-GFP; MOI 10, 24 hpi) | prps6 expression relative to DMSO control (mTOR signaling) | total rps6 protein expression relative to DMSO control (mTOR signaling) | also measured
COc1ccc(Br)cc1/C=C/C(=O)c1c(O)cccc1OC [Chalcone 8f] | most notable performance | 52.60% and 40–60% | 4.9 µM | 6.8 µM | – | – | – | –
COc1cc(/C=C/C(=O)c2c(O)cccc2OCc2ccccc2)cc(OC)c1OC [Chalcone 8z, (2E)-1-(2-Benzloxy-6-Hydroxy-Phenyl)-3-(3,4,5-Trimethoxy-Phenyl)-Propenone] | most notable performance | 40–60% | 2.4 µM | – | – | – | – | –
CCOc1ccc(Cl)cc1/C=C/C(=O)c1c(O)cccc1OCc1ccccc1 [Chalcone 8p] | most notable performance | < 10% | 8.4 µM | 3.2 µM | no significant inhibition of GFP expression | – | – | GFP-positive cells, chalcone added at 0 or 6 hpi (PIV5-GFP; MOI 10, read at 42 hpi): ~25%; Effect on number of GFP-positive cells, chalcone added at 18 hpi (PIV5-GFP; MOI 10, read at 42 hpi): no significant effect; GFP-positive cells (PIV5-GFP; MOI 10, 24 hpi): < 10%; GFP-positive cells, virus spread, chalcone added at 0 and 24 hpi (PIV5-GFP; [1]): less than 10%; Inhibition of virus spread, chalcone added at 48 and 72 hpi (PIV5-GFP; [1]): inhibition was not seen
CCOc1ccc(Br)cc1/C=C/C(=O)c1c(O)cccc1OCc1ccc(-c2ccccc2)cc1 [Chalcone 8v, (2E)-1-[2-(Biphenyl-4-Ylmethoxy)-6-Hydroxy-Phenyl]3-(5-Bromo-2-Ethoxy-Phenyl)-Propenone] | – | – | – | – | – | no significant change | no significant difference | % GFP relative to DMSO treated (10 µM) (PIV5-GFP; 10 µM): 63.3%
COc1ccc(Br)cc1/C=C/C(=O)c1c(O)cccc1OCCC(C)C [Chalcone 8s, (2E)-3-(5-Bromo-2-Methoxy-Phenyl)-1-[2-Hydroxy-6-(3-Methyl-Butoxy)-Phenyl]-Propenone] | most notable performance | 40–60% | 3.5 µM | – | – | no significant change | significantly increased | –
CCOc1ccc(Br)cc1/C=C/C(=O)c1c(O)cccc1OCc1ccccc1 [Chalcone 8o] | most notable performance | < 10% and 8.5% | 10.5 µM | 2.5 µM | no significant inhibition of GFP expression | no significant change | no significant difference | GFP-positive cells, chalcone added at 0 or 6 hpi (PIV5-GFP; MOI 10, read at 42 hpi): ~25%; Effect on number of GFP-positive cells, chalcone added at 18 hpi (PIV5-GFP; MOI 10, read at 42 hpi): no significant effect; GFP-positive cells (PIV5-GFP; MOI 10, 24 hpi): ~ 2% and 2.10% and < 10%; % GFP relative to DMSO treated (10 µM) (PIV5-GFP; 10 µM): 14.6%; GFP-positive cells, virus spread, chalcone added at 0 and 24 hpi (PIV5-GFP; [1]): less than 10%; Inhibition of virus spread, chalcone added at 48 and 72 hpi (PIV5-GFP; [1]): inhibition was not seen
COc1ccccc1/C=C/C(=O)c1ccccc1O [Chalcone 8a] | – | – | >15 µM | – | no significant inhibition of GFP expression | no significant change | no significant difference | GFP-positive cells regardless of time of addition (PIV5-GFP; 10 µM added at 0, 6 or 18 hpi, MOI 10, read at 42 hpi): ~ 80%; Inhibition of viral gene expression, PIV5 (PIV5-GFP; 10 µM, Hs27 cells): did not inhibit viral gene expression; GFP-positive cells with increasing concentration (PIV5-GFP; 2.5, 5, 7.5 or 10 µM before and after infection, MOI 10, 24 hpi): ~ 80%; Effect on number of GFP-positive cells, virus spread, all times of addition (PIV5-GFP; low MOI (0.1 in Figure 7), 10 µM added at 0, 24, 48 or 72 hpi, read at 96 hpi): modestly reduced
COc1ccc(Br)cc1/C=C/C(=O)c1c(O)cccc1OCc1ccc(-c2ccccc2)cc1 [Chalcone 8w, (2E)-1-[2-(Biphenyl-4-Ylmethoxy)-6-Hydroxy-Phenyl]3-(5-Bromo-2-Methoxy-Phenyl)-Propenone] | most notable performance | ~ 11% | 4.5 µM | – | – | no significant change | no significant difference | –
COc1ccc(Br)cc1/C=C/C(=O)c1c(O)cccc1OCc1ccccc1 [Chalcone 8l] | most notable performance | 40–60% and 57.7% | 7.0 µM | 4.0 µM | – | – | – | –
COc1ccc(O)cc1/C=C/C(=O)c1c(O)cccc1OCc1ccccc1 [Chalcone 8x, (2E)-1-(2-Benzloxy-6-Hydroxy-Phenyl)-5-(5-Hydroxy-2-Methoxy-Phenyl)-Propenone] | most notable performance | 40–60% | – | – | – | – | – | –
